The values below come from patent US20240109898A1, “SUBSTITUTED PYRAZOLO[1,5-A]PYRIMIDINE-7-AMINE DERIVATIVES, COMPOSITIONS AND PHARMACEUTICAL USES THEREOF” (SHANGHAI HAIYAN PHARMACEUTICAL TECHNOLOGY CO., LTD., priority 2021, published 2024).

Holding throughout (type): biochemical
One assay has as its target CDK9/CycT (Homo sapiens (Human), UniProt P50750). The assay can be described thus: LANCE Ultra kinase activity inhibition assay, CDK9/CycT. The following applies: ATP 10 μM, highest compound concentration 1 μM. Here is the method: (§1) In the following LANCE Ultra test methods, kinase reagents were purchased from Carna Bioscience, reaction substrates and detection reagents were purchased from PerkinElmer, and the remaining reagents were purchased from Thermo scientific.
The inhibiting effects on the kinase activity of CDK1/CycB (Carna bioscience, #04-102), CDK2/CycA (Carna bioscience, #04-103) and CDK9/CycT (Carna bioscience, #04-110) were determined by using LANCE Ultra method.
The kinase activity test was performed using a system (10 μL) containing the following components: substrate diluent prepared by mixing CDK kinase diluent, Ulight-Myelic basic protein (Perkin Elmer, #TRF-0109, hereinafter referred to as U-MBP) and ATP (Thermo scientific, #PV3227); and the compounds (i.e., analyte) prepared in the examples of the present disclosure. The assay for each kinase includes three test groups, i.e., a background group (Blank), a non-inhibition group (PC), and compound testing group (Test). The components included in each test group were as follows:
(§2) Working concentrations of the respective components of the Test groups in different kinase reactions were as follows.
(§3) Compounds: 10 mM of the compound to be tested was dissolved at room temperature and diluted with DMSO to gradient concentrations, followed by diluting with deionized water to prepare a 4× working solution of the compound, and the content of DMSO was 2%. The highest concentration of compound used in the CDK1 and CDK2 assays was 10 μM, and that in CDK9 assay was 1 μM.
1.33×reaction buffer: the components include 26.7 mM of MOPS, 6.67 mM of MgCl2, and 0.0133% Tween-20, which were stored in a 4° C. refrigerator and protected from light after preparation. Freshly prepared DTT was added to a final concentration of 5.33 mM before use.
(§4) The working concentration of DMSO in the reaction was 0.5%.
(§5) The above-mentioned components, after being mixed, were placed on a shaker and incubated at room temperature in the dark for 1 h. 10 μL of test solution was then added to all test groups (including Blank, PC and Test groups).
10 μL of test solution contains the following components: 16 mM of EDTA (Thermo scientific, #15575), 1 nM of phosphorylated U-MBP protein antibody (Perkin Elmer, #TRF-0201), and 1× detection damping fluid (Perkin Elmer, #CR97-100).
After the test solution was added, the solution was placed on a shaker and continually incubated at room temperature for 1 h in the dark. At the end of incubation, Victor X5 fluorescence microplate reader of Perkin Elmer was used to read the signal; the wavelength of excitation light was 320 nm, and the wavelengths of emission light were 615 nm and 665 nm. The inhibition rate was calculated as below.
1. For all groups, a value of 665 nm/615 nm (hereinafter referred to as Ratio) was calculated, and an inhibition rate was calculated based on the Ratio of each group;
(§6) 2. Inhibition rate=(PCRatio-TestRatio)/(PCRatio-BlankRatio)*100%; and
(§7) 3. XLFIT 5.0 software (IDBS, UK) was used to fit a graph by using the logarithmic value of the compound concentration as the X-axis and the inhibition rater as the Y-axis, and a four-parameter model was used to calculate the half inhibitory concentration IC50 of the compound.

A further assay has as its target CDK2/CycA (Homo sapiens (Human), UniProt P24941). As to the kind of experiment: LANCE Ultra kinase activity inhibition assay, CDK2/CycA. The following applies: ATP 10 μM, highest compound concentration 10 μM.
Text: as §1
(§8) The assay for each kinase includes three test groups, i.e., a background group (Blank), a non-inhibition group (PC), and compound testing group (Test). The components included in each test group were as follows:
as §2, §3, §4, §5
(§9) After the test solution was added, the solution was placed on a shaker and continually incubated at room temperature for 1 h in the dark. […] The inhibition rate was calculated as below.
as §6, §7

A further assay addresses CDK1/CycB (Homo sapiens (Human), UniProt P06493). The assay can be described thus: LANCE Ultra kinase activity inhibition assay, CDK1/CycB. The following applies: ATP 4 μM, highest compound concentration 10 μM.
Text: as §1, §8, §2, §3, §4, §5, §9, §6, §7

Sequence of CDK9/CycT (P50750 whole entry): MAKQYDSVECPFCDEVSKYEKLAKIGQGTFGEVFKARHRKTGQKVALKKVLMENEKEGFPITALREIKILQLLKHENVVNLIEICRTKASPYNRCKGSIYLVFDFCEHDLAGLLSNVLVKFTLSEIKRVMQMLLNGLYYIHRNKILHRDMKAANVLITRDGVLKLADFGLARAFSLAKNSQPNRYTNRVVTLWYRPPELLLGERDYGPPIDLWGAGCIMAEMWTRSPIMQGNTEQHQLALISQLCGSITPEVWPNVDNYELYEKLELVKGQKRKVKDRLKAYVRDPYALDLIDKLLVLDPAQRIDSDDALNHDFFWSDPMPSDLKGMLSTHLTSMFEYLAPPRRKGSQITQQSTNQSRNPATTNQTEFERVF
Sequence of CDK9/CycT (O60563 whole entry partner): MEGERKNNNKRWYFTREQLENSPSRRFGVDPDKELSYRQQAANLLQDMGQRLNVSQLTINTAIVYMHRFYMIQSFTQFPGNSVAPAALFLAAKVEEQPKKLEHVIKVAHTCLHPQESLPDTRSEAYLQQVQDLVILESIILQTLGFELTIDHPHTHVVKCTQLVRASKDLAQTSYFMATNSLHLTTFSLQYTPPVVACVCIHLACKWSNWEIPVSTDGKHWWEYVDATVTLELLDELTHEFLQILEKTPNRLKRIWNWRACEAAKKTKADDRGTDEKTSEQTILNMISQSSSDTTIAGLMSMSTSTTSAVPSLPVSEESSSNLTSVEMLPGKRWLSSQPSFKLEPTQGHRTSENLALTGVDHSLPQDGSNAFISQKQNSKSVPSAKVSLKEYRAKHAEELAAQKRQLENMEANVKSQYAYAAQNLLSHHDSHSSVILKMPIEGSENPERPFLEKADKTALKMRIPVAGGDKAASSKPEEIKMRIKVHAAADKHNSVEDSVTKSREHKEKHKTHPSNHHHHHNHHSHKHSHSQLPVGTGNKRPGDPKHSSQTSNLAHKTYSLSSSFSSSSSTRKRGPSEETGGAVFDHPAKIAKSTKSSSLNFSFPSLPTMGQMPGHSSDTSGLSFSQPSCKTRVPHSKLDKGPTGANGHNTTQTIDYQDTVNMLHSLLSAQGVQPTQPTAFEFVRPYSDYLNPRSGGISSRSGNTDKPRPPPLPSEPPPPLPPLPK
Sequence of CDK1/CycB (P06493 whole entry): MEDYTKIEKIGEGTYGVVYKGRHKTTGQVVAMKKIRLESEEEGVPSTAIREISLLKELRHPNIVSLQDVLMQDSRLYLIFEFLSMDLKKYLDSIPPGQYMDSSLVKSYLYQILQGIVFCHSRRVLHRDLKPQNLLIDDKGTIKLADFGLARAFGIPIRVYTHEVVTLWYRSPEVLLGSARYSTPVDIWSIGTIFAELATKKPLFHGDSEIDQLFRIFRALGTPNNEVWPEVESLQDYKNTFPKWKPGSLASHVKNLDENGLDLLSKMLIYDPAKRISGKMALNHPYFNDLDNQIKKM
Sequence of CDK1/CycB (P14635 whole entry partner): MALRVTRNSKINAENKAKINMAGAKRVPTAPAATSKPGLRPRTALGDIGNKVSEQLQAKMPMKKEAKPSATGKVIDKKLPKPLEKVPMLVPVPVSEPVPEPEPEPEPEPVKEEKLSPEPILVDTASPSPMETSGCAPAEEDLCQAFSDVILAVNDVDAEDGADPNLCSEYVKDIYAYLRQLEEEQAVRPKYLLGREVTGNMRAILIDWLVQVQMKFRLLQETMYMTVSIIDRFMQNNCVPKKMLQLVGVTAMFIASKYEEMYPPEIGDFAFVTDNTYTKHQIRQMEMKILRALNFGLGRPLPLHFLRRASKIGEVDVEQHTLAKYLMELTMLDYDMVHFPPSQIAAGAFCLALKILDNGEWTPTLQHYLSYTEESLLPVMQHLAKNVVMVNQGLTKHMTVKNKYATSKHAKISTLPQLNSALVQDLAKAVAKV

Consider `Cc1cnn2c(N[C@H]3CC[C@H](N)C3)cc([C@H](C)C3CCC3)nc12` (single isomer, unassigned) [Compound Z-38-P1], for which half-maximal inhibition on CDK9/CycT (IC50) required 0.04 µM.
The same measure, in the same setting: then `Cc1cnn2c(N[C@H]3CC[C@H](N)C3)cc([C@H](C)C3CCC3)nc12` (single isomer, unassigned) [Compound Z-38-P2], with 0.016 µM.
`N[C@H]1CC[C@H](Nc2cc(C(C3CC3)C3CC3)nc3ccnn23)C1` [Compound Z-1]: the IC50 was found to be 0.018 µM on CDK9/CycT, 5.65 µM against CDK2/CycA and 1.96 µM against CDK1/CycB.
Turning to `N[C@H]1CC[C@H](Nc2cc(C(C3CC3)C3CC3)nc3c(Cl)cnn23)C1` [Compound Z-2], the results for the IC50 against CDK9/CycT, against CDK2/CycA and at CDK1/CycB were 0.006 µM, 0.191 µM and 0.161 µM, respectively.
For `N[C@H]1CC[C@H](Nc2cc(CC3CC3)nc3ccnn23)C1` [Compound Z-3], in that order: 0.073 µM, greater than 10 µM and greater than 10 µM.
For `N#Cc1cnn2c(N[C@H]3CC[C@H](N)C3)cc(C(C3CC3)C3CC3)nc12` [Compound Z-4], in that order: 0.014 µM, 0.828 µM and 0.716 µM.
On CDK9/CycT, `C[C@@H](c1cc(N[C@H]2CC[C@H](N)C2)n2nccc2n1)C1CC1` [Compound Z-5-1] returned an IC50 of 0.023 µM.
On the same count and under the same terms, then `CC(c1cc(N[C@H]2CC[C@H](N)C2)n2nccc2n1)C1CC1` (stereo partly drawn) [Compound Z-5], with 0.017 µM; and `C[C@@H](c1cc(N[C@H]2CC[C@H](N)C2)n2nccc2n1)C1CCC1` [Compound Z-11-P2], with 0.03 µM; and `CC(c1cc(N[C@H]2CC[C@H](N)C2)n2nccc2n1)C1CCC1` (stereo partly drawn) [Compound Z-11], with 0.022 µM.
With `CC(C)(c1cc(N[C@H]2CC[C@H](N)C2)n2nccc2n1)C1CC1` [Compound Z-12], the IC50 against CDK9/CycT is 0.02 µM; on CDK2/CycA, greater than 10 µM; at CDK1/CycB, 2.72 µM.
The matching figures for `CC(c1cc(N[C@H]2CC[C@H](N)C2)n2nccc2n1)C1CCCC1` (stereo partly drawn) [Compound Z-13]: 0.018 µM, 7.62 µM and 1.34 µM.
As to `N[C@H]1CC[C@H](Nc2cc(C(C3CC3)C3CC3)nc3c(C4CC4)cnn23)C1` [Compound Z-14], the results for the IC50 against CDK9/CycT, against CDK2/CycA and against CDK1/CycB were 0.042 µM, 2.55 µM and 1.61 µM, respectively.
Take `N[C@H]1CC[C@H](Nc2cc(C(C3CC3)C3CC3)nc3c(F)cnn23)C1` [Compound Z-15]: the values for the IC50 on CDK9/CycT, on CDK2/CycA and at CDK1/CycB were 0.005 µM, 0.367 µM and 0.293 µM, respectively.
For `CCc1cnn2c(N[C@H]3CC[C@H](N)C3)cc(C(C3CC3)C3CC3)nc12` [Compound Z-16], in that order: 0.022 µM, 1.27 µM and 1.27 µM.
In the case of `CC1(Cc2cc(N[C@H]3CC[C@H](N)C3)n3nccc3n2)CC1` [Compound Z-17], the IC50 against CDK9/CycT was 0.06 µM; on CDK2/CycA it was greater than 10 µM; against CDK1/CycB it was 8.45 µM.
The matching figures for `C=CC(C)(C)c1cc(N[C@H]2CC[C@H](N)C2)n2nccc2n1` [Compound Z-18]: 0.033 µM, greater than 10 µM and 4.2 µM.
The matching figures for `C=CC(C)(C)c1cc(N[C@H]2CC[C@H](N)C2)n2ncc(C)c2n1` [Compound Z-19]: 0.092 µM, greater than 10 µM and greater than 10 µM.
Regarding `CCc1cnn2c(N[C@H]3CC[C@H](N)C3)cc(C(C)C3CC3)nc12` (stereo partly drawn) [Compound Z-20], the IC50 against CDK9/CycT came out at 0.034 µM; against CDK2/CycA, 4.39 µM; at CDK1/CycB it was 2.42 µM.
For `CC(c1cc(N[C@H]2CC[C@H](N)CC2)n2nccc2n1)C1CC1` (stereo partly drawn) [Compound Z-21], in that order: 0.029 µM, 3.29 µM and 4.37 µM.
`Cc1cnn2c(N[C@H]3CC[C@H](N)C3)cc(C(C)C3CCC3)nc12` (stereo partly drawn) [Compound Z-38] gave an IC50 on CDK9/CycT of 0.017 µM.
In the case of `NN1CCC(Nc2cc(C(C3CC3)C3CC3)nc3ccnn23)C1` (stereo not drawn) [Compound Z-59], the results for the concentration for half-maximal inhibition (IC50) against CDK2/CycA and on CDK1/CycB were greater than 10 µM and 8.82 µM, respectively.
